Results: ChEMBL document CHEMBL5518215, “Unlocking Antibacterial Potential: Key-Site-Based Regulation of Antibacterial Spectrum of Peptides” (J Med Chem, 2024)

How the values were obtained:
Escherichia coli [1] = experiment: Antimicrobial activity against Escherichia coli 25922 assessed as absence bacterial growth measured after 18 to 24 hrs incubation by NCCLS method; assay type: functional; conditions: time 18-24 hrs
Escherichia coli [2] = experiment: Antimicrobial activity against Escherichia coli K88 assessed as absence bacterial growth measured after 18 to 24 hrs incubation by NCCLS method; assay type: functional; conditions: time 18-24 hrs
Salmonella typhimurium [3] = experiment: Antimicrobial activity against Salmonella typhimurium 14028 assessed as absence bacterial growth measured after 18 to 24 hrs incubation by NCCLS method; assay type: functional, Salmonella enterica subsp. enterica serovar Typhimurium; conditions: Salmonella enterica, time 18-24 hrs
[4] = Antimicrobial activity against Salmonella pullorum C7913 assessed as absence bacterial growth measured after 18 to 24 hrs incubation by NCCLS method; assay type: functional, Salmonella enterica subsp. enterica serovar Pullorum; conditions: Salmonella enterica, time 18-24 hrs
Pseudomonas aeruginosa [5] = experiment: Antimicrobial activity against Pseudomonas aeruginosa 27853 assessed as absence bacterial growth measured after 18 to 24 hrs incubation by NCCLS method; assay type: functional; conditions: time 18-24 hrs
Acinetobacter baumannii [6] = experiment: Antimicrobial activity against Acinetobacter baumannii 1.6769 assessed as absence bacterial growth measured after 18 to 24 hrs incubation by NCCLS method; assay type: functional; conditions: time 18-24 hrs
Enterococcus faecalis [7] = experiment: Antimicrobial activity against Enterococcus faecalis 29212 assessed as absence bacterial growth measured after 18 to 24 hrs incubation by NCCLS method; assay type: functional; conditions: time 18-24 hrs
Listeria monocytogenes [8] = experiment: Antimicrobial activity against Listeria monocytogenes 1.10753 assessed as absence bacterial growth measured after 18 to 24 hrs incubation by NCCLS method; assay type: functional; conditions: time 18-24 hrs
Bacillus cereus [9] = experiment: Antimicrobial activity against Bacillus cereus 1.932 assessed as absence bacterial growth measured after 18 to 24 hrs incubation by NCCLS method; assay type: functional; conditions: time 18-24 hrs
Staphylococcus aureus [10] = experiment: Antimicrobial activity against Staphylococcus aureus 29213 assessed as absence bacterial growth measured after 18 to 24 hrs incubation by NCCLS method; assay type: functional; conditions: time 18-24 hrs
Staphylococcus aureus [11] = experiment: Antimicrobial activity against Methicillin-resistant Staphylococcus aureus 43300 assessed as absence bacterial growth measured after 18 to 24 hrs incubation by NCCLS method; assay type: functional; conditions: time 18-24 hrs
[12] = system: Staphylococcus epidermidis; experiment: Antimicrobial activity against Staphylococcus epidermidis 12228 assessed as absence bacterial growth measured after 18 to 24 hrs incubation by NCCLS method; assay type: functional; conditions: time 18-24 hrs
Staphylococcus aureus [13] = experiment: Antimicrobial activity against Staphylococcus aureus 29213 assessed as absence bacterial growth measured after 18 to 24 hrs incubation by NCCLS m; assay type: functional; conditions: time 18-24 hrs
Escherichia coli [14] = experiment: Antimicrobial activity against Escherichia coli 25922 assessed as bacterial killing measured after 16 hrs incubation; assay type: functional
Escherichia coli [15] = experiment: Antimicrobial activity against Escherichia coli K88 assessed as bacterial killing measured after 16 hrs incubation; assay type: functional
Salmonella typhimurium [16] = experiment: Antimicrobial activity against Salmonella typhimurium 14028 assessed as bacterial killing measured after 16 hrs incubation; assay type: functional, Salmonella enterica subsp. enterica serovar Typhimurium; conditions: Salmonella enterica
Salmonella typhimurium [17] = experiment: Antimicrobial activity against Salmonella typhimurium C7731 assessed as bacterial killing measured after 16 hrs incubation; assay type: functional, Salmonella enterica subsp. enterica serovar Typhimurium; conditions: Salmonella enterica
[18] = Antimicrobial activity against Salmonella pullorum C7913 assessed as bacterial killing measured after 16 hrs incubation; assay type: functional, Salmonella enterica subsp. enterica serovar Pullorum; conditions: Salmonella enterica
Pseudomonas aeruginosa [19] = experiment: Antimicrobial activity against Pseudomonas aeruginosa 27853 assessed as bacterial killing measured after 16 hrs incubation; assay type: functional
Acinetobacter baumannii [20] = experiment: Antimicrobial activity against Acinetobacter baumannii 1.6769 assessed as bacterial killing measured after 16 hrs incubation; assay type: functional
Enterococcus faecalis [21] = experiment: Antimicrobial activity against Enterococcus faecalis 29212 assessed as bacterial killing measured after 16 hrs incubation; assay type: functional
Listeria monocytogenes [22] = experiment: Antimicrobial activity against Listeria monocytogenes 1.10753 assessed as bacterial killing measured after 16 hrs incubation; assay type: functional
Bacillus cereus [23] = experiment: Antimicrobial activity against Bacillus cereus 1.932 assessed as bacterial killing measured after 16 hrs incubation; assay type: functional
Staphylococcus aureus [24] = experiment: Antimicrobial activity against Staphylococcus aureus 29213 assessed as bacterial killing measured after 16 hrs incubation; assay type: functional
Staphylococcus aureus [25] = experiment: Antimicrobial activity against Methicillin-resistant Staphylococcus aureus 43300 assessed as bacterial killing measured after 16 hrs incubation; assay type: functional
[26] = system: Staphylococcus epidermidis; experiment: Antimicrobial activity against Staphylococcus epidermidis 12228 assessed as bacterial killing measured after 16 hrs incubation; assay type: functional
Staphylococcus aureus [27] = experiment: Antimicrobial activity against Staphylococcus aureus 25923 assessed as bacterial killing measured after 16 hrs incubation; assay type: functional
Salmonella typhimurium [28] = experiment: Antimicrobial activity against Salmonella typhimurium C7731 assessed as absence bacterial growth measured after 18 to 24 hrs incubation by NCCLS method; assay type: functional, Salmonella enterica subsp. enterica serovar Typhimurium; conditions: Salmonella enterica, time 18-24 hrs
Escherichia coli [29] = experiment: Antimicrobial activity against Escherichia coli 25922 assessed as absence bacterial growth measured after 18 to 24 hrs incubation in presence of 50% serum by NCCLS method; assay type: functional; conditions: time 18-24 hrs
Escherichia coli [30] = experiment: Antimicrobial activity against Escherichia coli 25922 assessed as absence bacterial growth measured after 18 to 24 hrs incubation in presence of 25% serum by NCCLS method; assay type: functional; conditions: time 18-24 hrs
Escherichia coli [31] = experiment: Antimicrobial activity against Escherichia coli 25922 assessed as absence bacterial growth measured after 18 to 24 hrs incubation in presence of 12.5% serum by NCCLS method; assay type: functional; conditions: time 18-24 hrs
Escherichia coli [32] = experiment: Antimicrobial activity against Escherichia coli 25922 assessed as absence bacterial growth measured after 18 to 24 hrs incubation in presence of NaCl by NCCLS method; assay type: functional; conditions: time 18-24 hrs
Escherichia coli [33] = experiment: Antimicrobial activity against Escherichia coli 25922 assessed as absence bacterial growth measured after 18 to 24 hrs incubation in presence of KCl by NCCLS method; assay type: functional; conditions: time 18-24 hrs
Escherichia coli [34] = experiment: Antimicrobial activity against Escherichia coli 25922 assessed as absence bacterial growth measured after 18 to 24 hrs incubation in presence of NH4Cl by NCCLS method; assay type: functional; conditions: time 18-24 hrs
Escherichia coli [35] = experiment: Antimicrobial activity against Escherichia coli 25922 assessed as absence bacterial growth measured after 18 to 24 hrs incubation in presence of MgCl2 by NCCLS method; assay type: functional; conditions: time 18-24 hrs
Escherichia coli [36] = experiment: Antimicrobial activity against Escherichia coli 25922 assessed as absence bacterial growth measured after 18 to 24 hrs incubation in presence of ZnCl2 by NCCLS method; assay type: functional; conditions: time 18-24 hrs
Escherichia coli [37] = experiment: Antimicrobial activity against Escherichia coli 25922 assessed as absence bacterial growth measured after 18 to 24 hrs incubation in presence of FeCl3 by NCCLS method; assay type: functional; conditions: time 18-24 hrs
Erythrocyte = experiment: Hemolytic activity in human RBC at effective concentration measured after 1 hr by microplate reader analysis; assay type: toxicity, cell-based
[38] = Cytotoxicity against mouse RAW264.7 cells assessed as cell survival rate measured after 8 hrs by MTT assay; assay type: toxicity, cell-based
[39] = Cytotoxicity against human HEK-293T cells assessed as cell survival rate measured after 8 hrs by MTT assay; assay type: toxicity, cell-based
[40] = Cytotoxicity against porcine IPEC-J2 cells assessed as cell survival rate measured after 8 hrs by MTT assay; assay type: toxicity, cell-based, Sus scrofa; conditions: pig

H-GKLWLKGFKLWLKGGKLWLKG-NH2
MIC (Escherichia coli [1]): 2 µM
MIC (Escherichia coli [2]): 1 µM
MIC (Salmonella typhimurium [3]): 2 µM
MIC [4]: 0.5 µM
MIC (Pseudomonas aeruginosa [5]): 4 µM
MIC (Acinetobacter baumannii [6]): 2 µM
MIC (Enterococcus faecalis [7]): 2 µM
MIC (Listeria monocytogenes [8]): > 32 µM
MIC (Bacillus cereus [9]): 2 µM
MIC (Staphylococcus aureus [10]): 4 µM
MIC (Staphylococcus aureus [11]): 2 µM
MIC [12]: 4 µM
MIC (Staphylococcus aureus [13]): 4 µM
MBC (Escherichia coli [14]): 2 µM
MBC (Escherichia coli [15]): 1 µM
MBC (Salmonella typhimurium [16]): 8 µM
MBC (Salmonella typhimurium [17]): 32 µM
MBC [18]: 2 µM
MBC (Pseudomonas aeruginosa [19]): 16 µM
MBC (Acinetobacter baumannii [20]): 2 µM
MBC (Enterococcus faecalis [21]): 4 µM
MBC (Listeria monocytogenes [22]): > 32 µM
MBC (Bacillus cereus [23]): 2 µM
MBC (Staphylococcus aureus [24]): 4 µM
MBC (Staphylococcus aureus [25]): 8 µM
MBC [26]: 4 µM
MBC (Staphylococcus aureus [27]): 4 µM
MIC (Salmonella typhimurium [28]): 8 µM
MIC (Escherichia coli [29]): > 32 µM
MIC (Escherichia coli [30]): > 32 µM
MIC (Escherichia coli [31]): 16 µM
MIC (Escherichia coli [32]): 4 µM
MIC (Escherichia coli [33]): 4 µM
MIC (Escherichia coli [34]): 2 µM
MIC (Escherichia coli [35]): 4 µM
MIC (Escherichia coli [36]): 2 µM
MIC (Escherichia coli [37]): 2 µM
HC10 (Erythrocyte): 128 µM
IC50 at 8 h [38]: 31 µM
IC50 at 8 h [39]: 36.6 µM
IC50 at 8 h [40]: 35.7 µM

H-AKLWLKAAKLWLKAAKLWLKA-NH2
MIC (Escherichia coli [1]): 1 µM
MIC (Escherichia coli [2]): 0.5 µM
MIC (Salmonella typhimurium [3]): 1 µM
MIC [4]: 2 µM
MIC (Pseudomonas aeruginosa [5]): 2 µM
MIC (Acinetobacter baumannii [6]): 1 µM
MIC (Enterococcus faecalis [7]): 4 µM
MIC (Listeria monocytogenes [8]): 16 µM
MIC (Bacillus cereus [9]): 2 µM
MIC (Staphylococcus aureus [10]): 2 µM
MIC (Staphylococcus aureus [11]): 2 µM
MIC [12]: 2 µM
MIC (Staphylococcus aureus [13]): 2 µM
MBC (Escherichia coli [14]): 1 µM
MBC (Escherichia coli [15]): 0.5 µM
MBC (Salmonella typhimurium [16]): 2 µM
MBC (Salmonella typhimurium [17]): 0.5 µM
MBC [18]: 8 µM
MBC (Pseudomonas aeruginosa [19]): 4 µM
MBC (Acinetobacter baumannii [20]): 1 µM
MBC (Enterococcus faecalis [21]): 4 µM
MBC (Listeria monocytogenes [22]): 32 µM
MBC (Bacillus cereus [23]): 2 µM
MBC (Staphylococcus aureus [24]): 2 µM
MBC (Staphylococcus aureus [25]): 4 µM
MBC [26]: 4 µM
MBC (Staphylococcus aureus [27]): 4 µM
MIC (Salmonella typhimurium [28]): 0.5 µM
